# Data as given in PMC8355692, “Antimelanoma activities of chimeric thiazole–androstenone derivatives” (Royal Society Open Science, 2021).
# Tests used:
# LOX IMVI = assay: NCI DTP 60 cell line five-concentration test, melanoma panel; format: cell-based; conditions: for LC50 (50% lethal concentration) / GI50: Homo sapiens; for LC50 (50% lethal concentration): LOX IMVI, read-out: LC50 (50% lethal concentration); for GI50 / TGI (total growth inhibition): LOX IMVI melanoma cell line
# Experimental: (§1) In our effort to develop new methodologies to synthesize bioactive compounds [11–14], we have synthesized a number of thiazole and thiazolo-androstenone derivatives. We submitted 50 of the synthesized thiazole–androstenone derivatives to the National Cancer Institute (NCI) Development Therapeutics Program (DTP) to test against 60 cancer cell lines (https://dtp.cancer.gov/). These compounds were tested for cytotoxicity at a single dose of 10 µM. […] Eight of these chimeric compounds (figure 2) were selected for further testing at five different concentrations to determine 50% growth inhibition (GI50), total growth inhibition (TGI) and 50% lethal concentration (LC50) values. […] Overall, amino-thiazole derivatives (table 1, 1–7) were more toxic to melanoma cell lines than phenyl thiazole derivatives (8). Fluoro and oxy (hydroxy and methoxy) derivatives were the potent growth inhibitors of the tested cancer cell lines. LOX IMVI cell line was the most susceptible among all the melanoma cell lines used against the tested compounds (table 1). […] Phenyl ethyl derivative (1) inhibited the growth of all the cell lines except SK-MEL-2. […] 2,4-Dimethyl substituted derivative (7) is a potent growth inhibitor of all the tested cell lines of the melanoma panel.
# M14 = assay: as above; format: cell-based; conditions: for GI50 / CC50: Homo sapiens; for GI50: M14, M14 melanoma cell line; for CC50: M14, read-out: LC50 (50% lethal concentration); for TGI (total growth inhibition): M14 melanoma cell line
# Experimental: as §1
# MALME-3M = assay: as above; format: cell-based; conditions: for CC50 / GI50: Homo sapiens; for CC50: Malme-3M, read-out: LC50 (50% lethal concentration); for GI50 / TGI (total growth inhibition): MALME-3M melanoma cell line
# Experimental: as §1
# MDA-MB-435 = assay: as above; format: cell-based; conditions: for CC50 / GI50: Homo sapiens; for CC50: MDA-MB-435, read-out: LC50 (50% lethal concentration); for GI50 / TGI (total growth inhibition): MDA-MB-435 melanoma cell line
# Experimental: as §1
# SK-MEL-28 = assay: as above; format: cell-based; conditions: for CC50: SK-MEL-28, read-out: LC50 (50% lethal concentration)
# Experimental: as §1
# SK-MEL-2 = assay: as above; format: cell-based; conditions: for LC50 (50% lethal concentration) / GI50: Homo sapiens; for LC50 (50% lethal concentration): SK-MEL-2, read-out: LC50 (50% lethal concentration); for GI50 / TGI (total growth inhibition): SK-MEL-2 melanoma cell line
# Experimental: as §1
# SK-MEL-5 = assay: as above; format: cell-based; conditions: for CC50 / GI50: Homo sapiens; for CC50: SK-MEL-5, read-out: LC50 (50% lethal concentration); for GI50 / TGI (total growth inhibition): SK-MEL-5 melanoma cell line
# Experimental: as §1
# UACC-257 = assay: as above; format: cell-based; conditions: for CC50 / GI50: Homo sapiens; for CC50: UACC-257, read-out: LC50 (50% lethal concentration); for GI50 / TGI (total growth inhibition): UACC-257 melanoma cell line
# Experimental: as §1
# UACC-62 = assay: as above; format: cell-based; conditions: for GI50 / LC50 (50% lethal concentration): Homo sapiens; for GI50: UACC-62, UACC-62 melanoma cell line; for LC50 (50% lethal concentration): UACC-62, read-out: LC50 (50% lethal concentration); for TGI (total growth inhibition): UACC-62 melanoma cell line
# Experimental: as §1
# [1] = Solubility in the growth media; format: physicochemical; conditions: growth media of the HFF-1 test
# HFF-1 cell line = assay: Toxicity for normal human foreskin fibroblast cell line; format: cell-based; conditions: normal human foreskin fibroblast HFF-1
# Description: To assess the potential use of lead compounds as anti-melanoma agents, we tested their toxicity for the normal human foreskin fibroblast (HFF-1) cell line taking into consideration that MM is usually surrounded by the cells of this kind. The effects of some of the potent compounds on this cell line were very encouraging (table 4).
# SK-MEL-28 cell line = assay: Annexin V flow cytometry apoptosis assay; format: cell-based
# Experimental: After determining the selective toxicity of potent molecules, we determined their mode of action against the melanoma cell line. Apoptosis or programmed cell death is a physiological process to remove unwanted or damaged mammalian cells. We detected apoptosis mode of cell death by our potent compounds using flow cytometry-based Annexin V assay. Compound 3 caused 23% apoptosis at 6 µM and 54% apoptosis at 12 µM (figure 3). 3-Fluorophenyl derivative (5) was a very potent apoptosis-inducing agent that caused 100% cell death at 12 µM concentration. Dacarbazine, the positive control, caused 22% apoptotic cell death at 200 µM concentration.
# Figure 3. Apoptosis measurements using Annexin V flow cytometry assay of compounds 3 and 5 against SK-MEL-28 cell line at 6 and 12 µM concentrations. DMSO and dacarbazine (Daca) are negative and positive controls, respectively. Mean ± s.e.m., n = 3 per group.
# heme oxygenase-1 (HO1) = assay: HO1 immunocytochemistry combined with TUNEL (oxidative injury); format: cell-based; conditions: melanoma cells, 5 or 10 µM, 24 h
# Description: (§2) The elevation was dose-dependent.
# (§3) Figure 4. […] (c) Representative images. […] Mean ± s.e.m., n = 4 per group.
# (§4) Figure 5. […] (a) Representative images of TUNEL colocalized or not colocalized with each of the three protein markers used in this study. […] Mean ± s.e.m., n = 4 per group.
# (§5) Thus, to determine the mechanism of action of our compounds on melanoma cells in vitro, we applied the fluorescent TUNEL assay combined with quantitative ICC for three markers: HO1 for oxidative cell injury, CAD for caspase-mediated apoptosis and EndoG for caspase-independent apoptosis. […] However, none of the compounds or dacarbazine induced apoptotic endonucleases. This is not surprising because apoptotic endonucleases are commonly present in the cell in sufficient amounts to be able to destroy DNA upon cell death without induction (which most likely would not be possible in a dead cell).
# [2] = test system: caspase-activated DNase (CAD); assay: CAD immunocytochemistry combined with TUNEL (caspase-mediated apoptosis); format: cell-based; conditions: melanoma cells, 5 or 10 µM, 24 h
# Description: as §2, §3, §4, §5
# endonuclease G (EndoG) = assay: EndoG immunocytochemistry combined with TUNEL (caspase-independent apoptosis); format: cell-based; conditions: melanoma cells, 5 or 10 µM, 24 h
# Description: as §2, §3, §4, §5
# [3] = Homo sapiens, SK-MEL-28, SK-MEL-28 melanoma cell line
Compound,LC50 (50% lethal concentration) (LOX IMVI),GI50 (LOX IMVI),TGI (total growth inhibition) (LOX IMVI),GI50 (M14),CC50 (M14),TGI (total growth inhibition) (M14),CC50 (MALME-3M),GI50 (MALME-3M),TGI (total growth inhibition) (MALME-3M),CC50 (MDA-MB-435),GI50 (MDA-MB-435),TGI (total growth inhibition) (MDA-MB-435),GI50 (SK-MEL-28; [3]),CC50 (SK-MEL-28; Homo sapiens),TGI (total growth inhibition) (SK-MEL-28; SK-MEL-28 melanoma cell line),LC50 (50% lethal concentration) (SK-MEL-2),GI50 (SK-MEL-2),TGI (total growth inhibition) (SK-MEL-2),CC50 (SK-MEL-5),GI50 (SK-MEL-5),further results
C[C@]12CCc3nc(-c4cccc(F)c4)sc3C1=CC[C@@H]1[C@@H]2CC[C@]2(C)C(=O)CC[C@@H]12 [Compound 8],6.47 µM,1.74 µM,3.36 µM,6.62 µM,> 100 µM,>100 µM,9.48 µM,1.8 µM,4.13 µM,> 100 µM,2.97 µM,>100 µM,1.53 µM,> 100 µM,4.07 µM,> 100 µM,2.74 µM,10.7 µM,65.1 µM,4.05 µM,TGI (total growth inhibition) (SK-MEL-5): 16.9 µM; CC50 (UACC-257): > 100 µM; GI50 (UACC-257): 6.12 µM; TGI (total growth inhibition) (UACC-257): >100 µM; GI50 (UACC-62): 1.9 µM; LC50 (50% lethal concentration) (UACC-62): 37.3 µM; TGI (total growth inhibition) (UACC-62): 5.70 µM; solubility in the growth media [1]: low solubility
C[C@]12CCc3nc(Nc4ccc(OC(F)(F)F)cc4)sc3C1=CC[C@@H]1[C@@H]2CC[C@]2(C)C(=O)CC[C@@H]12 [Compound 3],5.82 µM,1.74 µM,3.18 µM,3.29 µM,46.6 µM,8.72 µM,84.5 µM,3.45 µM,16.8 µM,44.2 µM,2.72 µM,10.1 µM,≥ 1.32 µM,49.2 µM,7.98 µM,55.6 µM,3 µM,11.6 µM,41.4 µM,2.62 µM,"GI50 (SK-MEL-28; SK-MEL-28 melanoma cell line): 1.88 µM; TGI (total growth inhibition) (SK-MEL-5): 7.41 µM; CC50 (UACC-257): > 100 µM; GI50 (UACC-257): 4.89 µM; TGI (total growth inhibition) (UACC-257): 28.8 µM; GI50 (UACC-62): 3.03 µM; LC50 (50% lethal concentration) (UACC-62): > 100 µM; TGI (total growth inhibition) (UACC-62): 10.3 µM; toxicity against HFF1 cells (in words) (HFF-1 cell line): did not show any notable toxicity; IC50 (HFF-1 cell line; read-out: IC50 against HFF1 cell line): > 100 µM; apoptosis (SK-MEL-28 cell line; SK-MEL-28, 6 µM): 23%; apoptosis (SK-MEL-28 cell line; SK-MEL-28, 12 µM): 54%; HO1 staining in TUNEL-positive cells (oxidative injury) (heme oxygenase-1 (HO1)): strongly induced oxidative injury; CAD mean intensity [2]: No significant induction; colocalization of CAD with TUNEL (caspase-mediated apoptosis) [2]: induced the colocalization of CAD with TUNEL; EndoG mean intensity (endonuclease G (EndoG)): No significant induction"
C[C@]12CCc3nc(NCCc4ccccc4)sc3C1=CC[C@@H]1[C@@H]2CC[C@]2(C)C(=O)CC[C@@H]12 [Compound 1],5.91 µM,1.7 µM,3.17 µM,3.63 µM,> 100 µM,>100 µM,> 100 µM,2.18 µM,6.82 µM,> 100 µM,3.01 µM,>100 µM,3.37 µM,> 100 µM,18.9 µM,> 100 µM,17 µM,>100 µM,> 100 µM,4.57 µM,TGI (total growth inhibition) (SK-MEL-5): 52.7 µM; CC50 (UACC-257): > 100 µM; GI50 (UACC-257): 4.92 µM; TGI (total growth inhibition) (UACC-257): 79.8 µM; GI50 (UACC-62): 2.67 µM; LC50 (50% lethal concentration) (UACC-62): > 100 µM; TGI (total growth inhibition) (UACC-62): 10.6 µM; solubility in the growth media [1]: low solubility
